Measured values taken from patent US11390648B2, “Peptide” (HYSENSBIO, priority 2017, dated 2022).

Tested on: Dspp gene
Test: Dspp mRNA level in human dental pulp cells treated with peptide (real-time PCR)
Type: cell-based
Settings: hDPCs, peptide 10 μg/ml, 48 hours; ratio relative to Dspp mRNA level of untreated control; GAPDH internal control; triplicate
Method: Human dental pulp cells were separated from wisdom teeth of adults (aged 18-22) at the School of Dentistry, Seoul National University. In detail, all experiments were performed after the approval of the Institutional Review Board and the informed consent from patients. Wisdom teeth were fractured according to a method of Jung HS et al. (J Mol Histol.(2011)) to expose the dental pulps, and dental pulp tissues were separated with forceps. Each of the separated dental pulp tissues was cut into small pieces with a razor blade, put in a 60-mm dish, covered with a coverslip, and then cultured in a Dulbecco's modified Eagle's medium. It has been known that human dental pulp cells can differentiate into odontoblast, osteoblast, cementoblast, and periodontal ligament cells under various conditions (Tissue Eng Part A. 2014 April; 20 (7-8): 1342-51).
Total RNA was extracted from human dental pulp cells (hDPCs), and human bone marrow mesenchymal stem cells (hBMSCs) with TRIzol reagent. 2 μg of the total RNA, 1 μl of reverse transcriptase, and 0.5 μg of oligo (oligo; dT) were used to synthesize cDNA. The synthesized cDNA was used in a real-time polymerase chain reaction. The real-time polymerase chain reaction was performed on an ABI PRISM 7500 sequence detection system (Applied Biosystems) and an SYBR GREEN PCR Master Mix (Takara, Japan). The real-time polymerase chain reaction was performed under conditions of 94° C., 1 min; 95° C., 15 sec; 60° C., 34 sec for 40 cycles. Results were analyzed by a comparative cycle threshold (CT) method. And the used primers are as follows (Table 17).
The human dental pulp cells (hDPCs) cultured in Example 3 were treated with the peptides (concentration of 10 μg/ml) of each group synthesized in Example 1-1, and cultured for 48 hours. Then, mRNA levels of an odontoblast differentiation marker Dspp gene expressed in the human dental pulp cells were measured, and a ratio of the measured Dspp mRNA level relative to a Dspp mRNA level measured in a control group was calculated, respectively (Tables 18 to 33).
The expression level of the Dspp gene was measured through RT-PCR and real-time PCR analysis described in Example 1-4. In this regard, GAPDH gene was used as an internal control. The experiments were performed in triplicate, and then mean values and standard deviations thereof were taken as measured values. The base sequence of the primers is described in Table 17 above.

Row | Substance | mRNA level of Dspp gene, Mean
1 | 64 (KYNKKRR; Novel peptide) [compound 64] | 1.829
2 | 39 (KYRRKKR; Novel peptide) [compound 39] | 3.412
3 | 90 (KYQNRKR; Novel peptide) [compound 90] | 1.797
4 | 45 (KYKRKKK; Novel peptide) [compound 45] | 3.051
5 | 17 (KYKQRKK; Novel peptide) [compound 17] | 7.712
6 | 44 (KYKRRRR; Novel peptide) [compound 44] | 2.517
7 | 96 (KYQNKRR; Novel peptide) [compound 96] | 2.011
8 | 112 (KYNNKRR; Novel peptide) [compound 112] | 1.699
9 | 61 (KYNKKKK; Novel peptide) [compound 61] | 1.909
10 | 99 (KYNQRRK; Novel peptide) [compound 99] | 1.737
11 | 6 (KYQRKRK; Novel peptide) [compound 6] | 6.931
12 | 36 (KYRRRRR; Novel peptide) [compound 36] | 3.256
13 | 109 (KYNNKKK; Novel peptide) [compound 109] | 1.756
14 | 78 (KYRNKRK; Novel peptide) [compound 78] | 2.109
15 | 126 (KYKKKRK; Novel peptide) [compound 126] | 1.798
16 | 21 (KYKQKKK; Novel peptide) [compound 21] | 7.893
17 | 75 (KYRNRRK; Novel peptide) [compound 75] | 2.624
18 | 80 (KYRNKRR; Novel peptide) [compound 80] | 2.636
19 | 116 (KYRKRRR; Novel peptide) [compound 116] | 1.693
20 | 113 (KYRKRKK; Novel peptide) [compound 113] | 1.778
21 | 111 (KYNNKKR; Novel peptide) [compound 111] | 1.918
22 | 74 (KYRNRKR; Novel peptide) [compound 74] | 2.105

Row | Substance | mRNA level of Dspp gene, Mean
23 | 91 (KYQNRRK; Novel peptide) [compound 91] | 1.913
24 | 87 (KYKNKKR; Novel peptide) [compound 87] | 1.888
25 | 107 (KYNNRRK; Novel peptide) [compound 107] | 1.935
26 | 70 (KYNRKRK; Novel peptide) [compound 70] | 1.947
27 | 94 (KYQNKRK; Novel peptide) [compound 94] | 1.487
28 | 49 (KYQKRKK; Novel peptide) [compound 49] | 1.631
29 | 98 (KYNQRKR; Novel peptide) [compound 98] | 1.479
30 | 42 (KYKRRKR; Novel peptide) [compound 42] | 2.808
31 | 20 (KYKQRRR; Novel peptide) [compound 20] | 7.553
32 | 25 (KYQQRKK; Novel peptide) [compound 25] | 2.491
33 | 108 (KYNNRRR; Novel peptide) [compound 108] | 1.495
34 | 123 (KYKKRRK; Novel peptide) [compound 123] | 1.837
35 | 12 (KYRQRRR; Novel peptide) [compound 12] | 7.548
36 | 50 (KYQKRKR; Novel peptide) [compound 50] | 1.803
37 | 29 (KYQQKKK; Novel peptide) [compound 29] | 2.926
38 | 35 (KYRRRRK; Novel peptide) [compound 35] | 3.017
39 | 30 (KYQQKRK; Novel peptide) [compound 30] | 2.011
40 | 103 (KYNQKKR; Novel peptide) [compound 103] | 1.737
41 | 33 (KYRRRKK; Novel peptide) [compound 33] | 3.615
42 | 128 (KYKKKRR; Novel peptide) [compound 128] | 1.765
43 | 125 (KYKKKKK; Novel peptide) [compound 125] | 2.082
44 | 34 (KYRRRKR; Novel peptide) [compound 34] | 3.727

Row | Substance | mRNA level of Dspp gene, Mean
45 | 72 (KYNRKRR; Novel peptide) [compound 72] | 1.739
46 | 51 (KYQKRRK; Novel peptide) [compound 51] | 1.569
47 | 24 (KYKQKRR; Novel peptide) [compound 24] | 8.512
48 | 68 (KYNRRRR; Novel peptide) [compound 68] | 2.343
49 | 48 (KYKRKRR; Novel peptide) [compound 48] | 2.602
50 | 73 (KYRNRKK; Novel peptide) [compound 73] | 2.208
51 | 106 (KYNNRKR; Novel peptide) [compound 106] | 1.673
52 | 52 (KYQKRRR; Novel peptide) [compound 52] | 1.949
53 | 46 (KYKRKRK; Novel peptide) [compound 46] | 2.733
54 | 88 (KYKNKRR; Novel peptide) [compound 88] | 1.539
55 | 22 (KYKQKRK; Novel peptide) [compound 22] | 7.412
56 | 9 (KYRQRKK; Novel peptide) [compound 9] | 7.543
57 | 67 (KYNRRRK; Novel peptide) [compound 67] | 2.452
58 | 122 (KYKKRKR; Novel peptide) [compound 122] | 1.979
59 | 119 (KYRNKKR; Novel peptide) [compound 119] | 2.121
60 | 38 (KYRRKRK; Novel peptide) [compound 38] | 2.099
61 | 5 (KYQRKKK; Novel peptide) [compound 5] | 6.893
62 | 118 (KYRKKRK; Novel peptide) [compound 118] | 2.015
63 | 124 (KYKKRRR; Novel peptide) [compound 124] | 2.017
64 | 101 (KYNQKKK; Novel peptide) [compound 101] | 1.674
65 | 86 (KYKNKRK; Novel peptide) [compound 86] | 1.736
66 | 53 (KYQKKKK; Novel peptide) [compound 53] | 1.422

Row | Substance | mRNA level of Dspp gene, Mean
67 | 41 (KYKRRKK; Novel peptide) [compound 41] | 2.937
68 | 81 (KYKNRKK; Novel peptide) [compound 81] | 1.757
69 | 40 (KYRRKRR; Novel peptide) [compound 40] | 3.109
70 | 26 (KYQQRKR; Novel peptide) [compound 26] | 2.623
71 | 71 (KYNRKKR; Novel peptide) [compound 71] | 2.052
72 | 57 (KYNKRKK; Novel peptide) [compound 57] | 2.415
73 | 19 (KYKQRRK; Novel peptide) [compound 19] | 7.931
74 | 66 (KYNRRKR; Novel peptide) [compound 66] | 2.072
75 | 83 (KYKNRRK; Novel peptide) [compound 83] | 2.001
76 | 10 (KYRQRKR; Novel peptide) [compound 10] | 6.996
77 | 7 (KYQRKKR; Novel peptide) [compound 7] | 6.881
78 | 4 (KYQRRRR; Novel peptide) [compound 4] | 7.071
79 | 62 (KYNKKRK; Novel peptide) [compound 62] | 2.752
80 | 8 (KYQRKRR; Novel peptide) [compound 8] | 6.531
81 | 16 (KYRQKRR; Novel peptide) [compound 16] | 7.739
82 | 14 (KYRQKRK; Novel peptide) [compound 14] | 6.839
83 | 63 (KYNKKKR; Novel peptide) [compound 63] | 2.373
84 | 23 (KYKQKKR; Novel peptide) [compound 23] | 9.171
85 | 65 (KYNRRKK; Novel peptide) [compound 65] | 2.201
